Read-outs that look alike come from different tables or passages of the source.
Experiments:
mTOR/GbL/Raptor (mTORC1) = mTOR/GbL/Raptor (mTORC1) (Homo sapiens, UniProt P42345); test: mTOR/GbL/Raptor (mTORC1) ELISA assay; format: biochemical
Experimental: The measurement of mTORC1 enzyme activity was performed in an ELISA assay format following the phosphorylation of 4E-BP1 protein. All experiments were performed in the 384-well format. Generally, 0.5 μL DMSO containing varying concentrations of the test compound was mixed with 15 μL enzyme solution. Kinase reactions were initiated with the addition of 15 μL of substrates-containing solution. The assay conditions were as follows; 0.2 nM mTORC1, 10 μM ATP and 50 nM NHis-tagged 4E-BP1 in 20 mM Hepes, pH 7.2, 1 mM DTT, 50 mM NaCl, 10 mM MnCl2, 0.02 mg/mL BSA, 0.01% CHAPS, 50 mM β-glycerophosphate. Following an incubation of 120 minutes at ambient temperature, 20 μL of the reaction volume was transferred to a Ni-Chelate-coated 384-well plate. The binding step of the 4E-BP1 protein proceeded for 60 minutes, followed by washing 4 times each with 50 μL of Tris-buffered saline solution (TBS). Anti-phospho-4E-BP1 rabbit-IgG (20 μL, 1:5000) in 5% BSA-TBST (0.2% Tween-20 in TBS) was added and further incubated for 60 minutes. Incubation with a secondary HRP-tagged anti-IgG was similarly performed after washing off the primary antibody (4 washes of 50 μL). Following the final wash step with TBST, 20 μL of SuperSignal ELISA Femto (Pierce Biotechnology) was added and the luminescence measured using an EnVision plate reader.

PI3Kδ = PI3Kδ (Homo sapiens, UniProt O00329); test: PI3K biochemical assay, PI3Kδ; settings: PIP2 as substrate
Experimental: PI3Kα activity is measured as the percent of ATP consumed following the kinase reaction using luciferase-luciferin-coupled chemiluminescence. Reactions were conducted in 384-well white, medium binding microtiter plates (Greiner). Kinase reactions were initiated by combining test compounds, ATP, substrate (PIP2), and kinase in a 20 μL volume in a buffer solution. The standard PI3Kalpha assay buffer is composed 50 mM Tris, pH 7.5, 1 mM EGTA, 10 mM MgCl2, 1 mM DTT and 0.03% CHAPS. The standard assay concentrations for enzyme, ATP, and substrate are 1.5 nM, 1 μM, and 10 μM, respectively. The reaction mixture was incubated at ambient temperature for approximately 2 h. Following the kinase reaction, a 10 μL aliquot of luciferase-luciferin mix (Promega Kinase-Glo) was added and the chemiluminescence signal measured using a Victor2 plate reader (Perkin Elmer). Total ATP consumption was limited to 40-60% and IC50 values of control compounds correlate well with literature references. Substituting PI3Kα with PI3Kβ, PI3Kγ, or PI3Kδ, the inhibitory activity of the compounds for the other isoforms of I3K were measured.

[1] = tested on: T-47D cells (PI3Kα-H1047R mutant); test: pAKT (T308) ELISA assay, T-47D; format: cell-based; settings: Homo sapiens, T47D
Experimental: (§1) In another embodiment, the pAKT ELISA Assay was performed by seeding cells onto 96-well plates (Corning, 3904) in their respective growth media at the densities listed in Table 3. Cells were incubated at 37° C., 5% CO2 for 48 h (except MDA-MB-453 cells which were cultured in the absence of CO2). Compounds were serially diluted in DMSO and subsequently diluted in serum-free DMEM. Test compounds were added to cells in serum-free DMEM at a final concentration of 0.3% DMSO and incubated for 3 h. Cells were lysed with 130 μL of ice-cold RIPA lysis buffer (50 mM Tris-HCl, pH 7.5; 0.5% sodium deoxycholic acid; 1% Triton X-100; 0.1% SDS; 150 mM NaCl) with protease and phosphatase inhibitors (1 mM EDTA, 1 mM NaF, 20 mM β-glycerophosphate, 1 mM Na-orthovanadate, Complete-Mini EDTA-free, Roche, 11836170001, and Phosphatase Inhibitor Cocktail I, Sigma, P2850), directly in 96-well plates. Cells were lysed on ice for 60-120 min at 4° C. The supernatants were added directly to capture ELISA plates previously pre-coated with rabbit anti-AKT capture antibody. […] The wells were measured for luminescence using a Wallac plate reader at wavelength of 560 nm. After normalization of pAKT signal to total AKT1 signal, IC50 values were determined relative to the DMSO-treated control.

[2] = tested on: MDA-MB-453 (PI3Kα H1047R); test: pAKT (T308) ELISA assay, MDA-MB-453; format: cell-based; settings: Homo sapiens, PI3KαH1047R, hereg, read-out: Cellular pAKT (T308) IC50 MDA-MB-453
Experimental: as §1

Chain of PI3Kδ (O00329 whole entry): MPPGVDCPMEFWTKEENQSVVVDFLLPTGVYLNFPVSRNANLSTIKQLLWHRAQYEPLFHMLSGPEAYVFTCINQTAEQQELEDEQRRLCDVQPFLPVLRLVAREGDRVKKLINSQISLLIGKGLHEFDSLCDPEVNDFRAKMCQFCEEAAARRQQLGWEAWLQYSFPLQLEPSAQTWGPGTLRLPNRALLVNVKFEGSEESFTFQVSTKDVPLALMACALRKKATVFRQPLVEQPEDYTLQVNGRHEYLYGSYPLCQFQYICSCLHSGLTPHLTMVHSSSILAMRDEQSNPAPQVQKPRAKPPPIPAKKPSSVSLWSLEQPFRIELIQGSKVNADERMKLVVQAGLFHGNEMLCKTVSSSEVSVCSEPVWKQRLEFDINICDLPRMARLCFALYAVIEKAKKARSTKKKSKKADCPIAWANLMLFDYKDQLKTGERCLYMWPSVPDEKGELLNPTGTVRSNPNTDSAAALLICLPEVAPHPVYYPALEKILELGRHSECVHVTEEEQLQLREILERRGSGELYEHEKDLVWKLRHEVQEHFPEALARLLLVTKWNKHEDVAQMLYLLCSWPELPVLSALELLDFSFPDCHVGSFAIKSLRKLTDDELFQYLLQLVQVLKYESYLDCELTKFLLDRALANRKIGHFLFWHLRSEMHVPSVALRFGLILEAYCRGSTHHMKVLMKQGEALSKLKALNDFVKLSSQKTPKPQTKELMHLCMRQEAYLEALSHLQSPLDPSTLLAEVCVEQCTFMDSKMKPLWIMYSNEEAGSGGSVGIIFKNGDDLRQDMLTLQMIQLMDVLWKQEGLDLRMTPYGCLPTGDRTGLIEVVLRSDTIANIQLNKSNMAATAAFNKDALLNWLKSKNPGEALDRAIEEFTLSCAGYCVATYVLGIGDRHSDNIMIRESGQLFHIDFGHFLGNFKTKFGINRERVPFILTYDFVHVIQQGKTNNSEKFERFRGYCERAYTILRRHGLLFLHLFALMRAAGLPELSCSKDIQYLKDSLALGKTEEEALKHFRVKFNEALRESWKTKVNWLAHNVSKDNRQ
Chain of PI3Kδ (P27986 whole entry partner): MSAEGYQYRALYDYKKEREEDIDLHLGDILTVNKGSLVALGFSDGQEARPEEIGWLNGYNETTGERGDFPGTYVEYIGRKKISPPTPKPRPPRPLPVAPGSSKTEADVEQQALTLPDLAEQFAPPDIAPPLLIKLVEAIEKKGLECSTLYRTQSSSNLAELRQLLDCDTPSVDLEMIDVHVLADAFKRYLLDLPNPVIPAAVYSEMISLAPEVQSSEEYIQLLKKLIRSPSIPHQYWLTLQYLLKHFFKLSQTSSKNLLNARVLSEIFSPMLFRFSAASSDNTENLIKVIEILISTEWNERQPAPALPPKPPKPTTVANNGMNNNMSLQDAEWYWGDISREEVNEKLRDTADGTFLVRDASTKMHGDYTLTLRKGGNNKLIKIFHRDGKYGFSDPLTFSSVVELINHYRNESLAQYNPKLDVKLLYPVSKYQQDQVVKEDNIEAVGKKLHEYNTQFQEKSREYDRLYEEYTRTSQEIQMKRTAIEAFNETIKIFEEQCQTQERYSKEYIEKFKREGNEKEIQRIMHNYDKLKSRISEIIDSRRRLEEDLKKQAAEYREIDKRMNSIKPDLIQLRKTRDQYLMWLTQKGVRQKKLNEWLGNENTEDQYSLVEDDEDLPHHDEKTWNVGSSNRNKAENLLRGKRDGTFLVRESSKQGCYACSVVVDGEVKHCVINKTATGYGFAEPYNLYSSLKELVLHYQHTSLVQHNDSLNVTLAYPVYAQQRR

Q: Cc1cc(C(C)Nc2ccccc2)c2nc(N3CCOCC3)cc(=O)n2c1 (stereo not drawn) [TGX-221, 7-methyl-2-(4-morpholinyl)-9-[1-(phenylamino)ethyl]-4H-pyrido[1,2-a]pyrimidin-4-one] was tested. Which IC50 (mTOR/GbL/Raptor (mTORC1); 4EBP1 as substrate for mTOR/GbL/raptor kinase, read-out: biochemical IC50 mTOR) did it give?
A: 10.9 µM

Q: What about the IC50 (mTOR/GbL/Raptor (mTORC1); Table 5, read-out: Biochemical IC50 mTOR) of the same molecule?
A: 10.9 µM

Q: What about the IC50 (PI3Kδ) of the same molecule?
A: 0.142 µM

Q: What about the IC50 ([1]; IGF1 stimulation, Table 5, read-out: pAKT (T308) IC50 T-47D PI3Kα H1047R IGF1) of the same molecule?
A: 27.9 µM

Q: What about the IC50 ([1]; PI3KαH1047R, IGF1, Table 6, read-out: Cellular pAKT (T308) IC50 T-47D) of the same molecule?
A: 27.9 µM

Q: What about the IC50 [2] of the same molecule?
A: > 30 µM
